For one test, the target named is T1, Human Platelet 12-LPO (Homo sapiens, UniProt P18054).
T1 construct: Human neutrophils and platelets were obtained from the blood of normal volunteers; endogenous in cells; host or cells: human platelets from blood of normal volunteers
T1 sequence (P18054 1-663): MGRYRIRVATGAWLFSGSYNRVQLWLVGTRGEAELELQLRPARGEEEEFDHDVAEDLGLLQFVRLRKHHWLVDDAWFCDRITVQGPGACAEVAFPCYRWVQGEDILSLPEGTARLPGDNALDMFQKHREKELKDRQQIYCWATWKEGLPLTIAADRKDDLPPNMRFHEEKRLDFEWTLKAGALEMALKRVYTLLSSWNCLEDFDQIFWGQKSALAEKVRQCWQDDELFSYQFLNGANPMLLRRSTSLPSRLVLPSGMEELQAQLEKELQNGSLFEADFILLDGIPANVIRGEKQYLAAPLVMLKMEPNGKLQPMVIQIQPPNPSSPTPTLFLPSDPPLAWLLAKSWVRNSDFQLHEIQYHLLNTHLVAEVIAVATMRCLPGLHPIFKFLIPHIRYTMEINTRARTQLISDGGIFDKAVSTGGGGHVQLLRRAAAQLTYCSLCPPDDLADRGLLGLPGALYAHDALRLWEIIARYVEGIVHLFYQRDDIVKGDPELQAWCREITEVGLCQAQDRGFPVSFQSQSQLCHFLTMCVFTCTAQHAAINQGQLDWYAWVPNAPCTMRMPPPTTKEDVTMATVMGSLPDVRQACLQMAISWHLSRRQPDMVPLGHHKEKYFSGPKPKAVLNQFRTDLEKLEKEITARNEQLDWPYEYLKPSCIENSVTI
Description: Inhibition of 12-LPO, human platelet. The class given is cell-based. The note with it: @ 100 μM; read-out: % I Human Platelet 12-LPO.

The subject of test [1] is cell infiltration (leukocytes). Description: Carrageenan sponge implantation model, cell infiltration. It is filed as in vivo, rat. Particulars: for Leukocyte No.: 6 h. The text has this:
(§1) The carrageenan sponge implantation model is primarily used to measure the effect of antiinflammatory agents on cell infiltration. An acute inflammatory response is stimulated by the implantation of a small sponge beneath the skin of rats. The sponge normally contains an inflammatory stimulus such as carrageenan and produces a response which is characterized by infiltration of cells and accumulation of fluid. The number of cells in the exudate can be conveniently measured in the exudate fluid.
(§2) The compound of Example I was evaluated for its local effect on cell migration and mediator production in this model. For comparison, indomethacin and BW755C were also evaluated after local application. Polyester sponges were soaked in solutions of 0.5% carrageenan (in normal saline) which also contained 1% or 5% wt/vol of the test compound. The impregnated sponge was inserted through a small incision on the dorsal surface of a lightly anesthetized rat into a subcutaneous pocket formed by blunt dissection. The incision was then closed. The control treatment consisted of a sponge soaked in 0.5% carrageenan in normal saline. Animals were sacrificed 6 hours after sponge implantation. Sponges are dissected out an placed in heparinized saline. The number of infiltrating cells were determined using a coulter counter. The inflammatory mediators prostaglandin E2, LTB4 and TxB2 in the exudate were determined by radioimmunoassay.

Test [2] relates to inflammatory mediators prostaglandin E2, LTB4 and TxB2. Description: Carrageenan sponge implantation model, mediator production in exudate. It is filed as in vivo, rat.
From the text: as §1, §2

The next test deals with T2, Human Platelet CO (Homo sapiens, UniProt P23219).
T2 construct: Human neutrophils and platelets were obtained from the blood of normal volunteers; endogenous in cells; host or cells: human platelets from blood of normal volunteers
T2 sequence (P23219 24-599): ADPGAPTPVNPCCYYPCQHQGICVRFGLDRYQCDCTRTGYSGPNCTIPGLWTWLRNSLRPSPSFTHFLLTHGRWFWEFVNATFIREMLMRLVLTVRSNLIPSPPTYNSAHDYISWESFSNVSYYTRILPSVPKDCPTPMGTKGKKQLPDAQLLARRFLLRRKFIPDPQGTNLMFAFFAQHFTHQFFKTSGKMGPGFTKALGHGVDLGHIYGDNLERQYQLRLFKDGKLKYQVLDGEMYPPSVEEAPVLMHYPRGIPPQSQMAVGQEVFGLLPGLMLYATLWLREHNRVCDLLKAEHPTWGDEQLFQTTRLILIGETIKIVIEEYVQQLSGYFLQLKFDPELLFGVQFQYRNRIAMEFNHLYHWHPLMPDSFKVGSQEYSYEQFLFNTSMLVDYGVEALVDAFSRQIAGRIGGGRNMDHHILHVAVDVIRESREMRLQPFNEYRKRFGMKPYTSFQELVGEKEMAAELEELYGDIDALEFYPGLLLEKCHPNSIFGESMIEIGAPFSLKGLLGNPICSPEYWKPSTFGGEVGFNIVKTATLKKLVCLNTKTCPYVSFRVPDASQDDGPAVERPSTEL
Description: Inhibition of CO, human platelet. It is filed as cell-based. The note with it: 95% confidence interval given for some.

In test [3] the target is T3, 5-lipoxygenase (Human Leukocyte/PMNL 5-LPO) (Homo sapiens, UniProt P09917).
T3 construct: Human neutrophils and platelets were obtained from the blood of normal volunteers; endogenous in cells; host or cells: human blood leukocytes (neutrophils) of normal volunteers, with 0.1 to 0.5 platelets per leukocyte
T3 sequence (P09917 1-674): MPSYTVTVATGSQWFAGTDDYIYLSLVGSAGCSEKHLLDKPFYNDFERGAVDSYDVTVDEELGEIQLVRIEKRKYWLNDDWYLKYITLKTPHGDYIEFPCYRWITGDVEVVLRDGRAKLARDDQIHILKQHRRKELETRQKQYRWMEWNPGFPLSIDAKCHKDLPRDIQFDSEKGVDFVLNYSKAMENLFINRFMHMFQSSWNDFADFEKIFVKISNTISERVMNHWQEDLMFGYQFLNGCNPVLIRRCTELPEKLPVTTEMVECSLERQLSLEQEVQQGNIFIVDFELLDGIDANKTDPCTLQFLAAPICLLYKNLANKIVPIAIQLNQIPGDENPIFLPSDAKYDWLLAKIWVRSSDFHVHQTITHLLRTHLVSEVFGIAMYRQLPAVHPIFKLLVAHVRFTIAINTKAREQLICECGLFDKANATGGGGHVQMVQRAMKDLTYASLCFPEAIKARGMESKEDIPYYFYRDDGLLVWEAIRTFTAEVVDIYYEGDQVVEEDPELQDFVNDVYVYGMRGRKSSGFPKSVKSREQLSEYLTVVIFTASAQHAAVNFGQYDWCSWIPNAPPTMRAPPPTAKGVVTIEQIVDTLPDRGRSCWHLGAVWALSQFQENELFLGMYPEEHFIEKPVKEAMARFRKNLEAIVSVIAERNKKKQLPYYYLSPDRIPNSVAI
Nature of the test: Inhibition of 5-lipoxygenase (5-HETE formation) in human neutrophil/platelet system. It is filed as cell-based. An excerpt: This test is a measure of the inhibition of the synthesis of lipoxygenase products generated by human neutrophils and platelets. The protocol is similar to that described in the article "Comparative Effects of Indomethacin, Acetylenic Acids, 15-HETE, NDGA and BW755C on the Metabolism of Arachidonic Acid in Human Leukocytes and Platelets", H. Solari, P. Braquet and P. Borgeat, Prost. Leuk. Med. 13, pp. 53-60, 1984.
Human neutrophils and platelets were obtained from the blood of normal volunteers. The blood was collected into tubes containing EDTA as an anticoagulant. The blood was centrifuged at 250×g for 15 minutes and the platelet rich plasma was removed. The cell fraction was mixed with an equal volume of 0.9% saline containing 10 mM dextrose and resuspended in Dulbecco's phosphate buffered saline (PBS) without Mg^++ and Ca^++ and was counted. The cell suspension was adjusted to give a leukocyte count of 2-3×10^7 cells/ml.
Test compounds were dissolved in ethanol and added to polypropylene tubes. To control tubes (drug-free) only ethanol was added. The ethanol was evaporated to dryness under a stream of argon and then 0.1 ml of the cell suspension (2-3×10^6 cells) was added. This mixture was pre-incubated for 5 minutes at 37° and then the reaction was initiated by addition of ^3 H-arachidonic acid, calcium ionophore (A23187), and calcium ion. The final concentration of each component was: arachidonic acid, 10 uM; A23187, […]; calcium ion, […]. After 5 minutes the incubations were stopped by addition of an equal volume of methanol. The tubes were spun at 11,000 g for 2 minutes to pellet the precipitated protein. The supernatant was analyzed by HPLC for 5-HETE. The formation of this product is indicative of 5-lipoxygenase activity. Test drugs were evaluated for their ability to inhibit 5-HETE formation. Percent inhibition of varying concentrations of test drugs was determined in duplicate by comparing the peak quantitation in the presence and absence (control) of drug. […] The IC50 values were calculated from log-dose response curves of pooled data from at least two experiments by linear regression analysis.
The activity was tested by the same method as in the previous example.
The enzyme inhibitory activity of these compounds was tested by the same method.

[4] abbreviates: Experiment 2, 0.5% carrageenan plus 5% compound in sponge, control 33.0 ± 3.8.
Setting [5] is: Experiment 1, 1% compound, control 3.6 ± 1.3.
The mark [6] stands for this setting: Experiment 1, 1% compound, control 10.8 ± 3.7.
Setting [7] is: Experiment 1, 1% compound, control 11.8 ± 4.1.
Setting [8] is: Experiment 2, 5% compound, control 19.2 ± 1.9.
[9] abbreviates: Experiment 2, 5% compound, control 137.6 ± 13.1.

Molecules are shown by their SMILES. Some results are limits rather than exact numbers.

In general, IC50 refers to the concentration that inhibits the measured activity by half. What is called % Inhibition is the percentage by which the read-out fell short of the control. High values mean strong suppression, low ones little suppression. For the molecule `O=C(CCCCCCCCc1ccccc1)NO` [Compound 1, 9-Phenylnonanohydroxamic Acid], the inhibition at 100 µM on Human Platelet 12-LPO is 33%. The “Leukocyte No.” value is reported as 6.9 ± .7 cells/ml (× 10^-6) in test [1] (Experiment 1, 0.5% carrageenan plus 1% compound in sponge, control 10.8 ± 1.5) and < 1 cells/ml (× 10^-6) in test [1] (setting [4]). For the same molecule, the results for the “reduction of cell infiltration” value in test [1] (dosed at 1%) and in test [1] (dosed at 5%) were 36.1% and 96.1%, respectively. Further, in test [1] (in words), the “activity in carrageenan sponge implantation model” value is listed as “found to have activity in this in vivo animal system”. The TXB2 in test [2] (setting [5]) was determined as 0.3 ± 0.1 ng/ml Exudate; in test [2] (setting [8]), 4.1 ± 0.9 ng/ml Exudate. Moreover, the PGE2 in test [2] (setting [6]) amounted to 5.7 ± 0.9 ng/ml Exudate; in test [2] (setting [9]), 21.3 ± 4.1 ng/ml Exudate. Also, the LTB4 was 2.1 ± 1.0 ng/ml Exudate in test [2] (setting [7]) and 2.4 ± 0.9 ng/ml Exudate in test [2] (Experiment 2, 5% compound, control 5.5 ± 0.9). The IC50 against Human Platelet CO came to 15 µM; in test [3] (FIG. 1 table, 95% confidence interval, read-out: IC50 Human PMNL 5-LPO), 5.7 µM. The “% Inhibition at 100 μm” value in test [3] (4-alkoxyphenyl compounds) was determined as 98.3%.
In the case of `NC1=NN(c2cccc(C(F)(F)F)c2)CC1` [BW755C, reference compound], the “Leukocyte No.” value in test [1] (setting [4]) is 6.9 ± 1.7 cells/ml (× 10^-6). Further, in test [1] (dosed at 5%), the “reduction of cell infiltration” value worked out at 79%. Besides, the TXB2 in test [2] (setting [8]) was found to be 0.8 ± 0.3 ng/ml Exudate. Besides, the PGE2 in test [2] (setting [9]) is reported as 3.0 ± 1.0 ng/ml Exudate.
Consider `COc1ccc2c(c1)c(CC(=O)O)c(C)n2C(=O)c1ccc(Cl)cc1` [Indomethacin, reference compound], for which, in test [1] (dosed at 1%), the “reduction of cell infiltration” value is on record as “did not significantly reduce cell infiltration”. In addition, in test [2] (setting [5]), the TXB2 was less than 0.5 ng/ml Exudate. The molecule further had a PGE2 in test [2] (setting [6]) of 1.9 ± 0.3 ng/ml Exudate. Also, the LTB4 in test [2] (setting [7]) is on record as 1.6 ± 0.5 ng/ml Exudate.

Source of the values: patent US4861798A, “Lipoxygenase inhibitory compounds” (Bristol-Myers Company, priority 1987, dated 1989).
